Experimental data published in patent US20260365696A1, “INHIBITORS OF PTP1B / NCK1 INTERACTION AND METHODS OF MAKING AND USING SAME” (Radella Pharmaceuticals LLC, priority 2023, published 2026).
Residues, ends and D or L forms follow the SMILES beside them.

The molecules below were run against T1, SH3-2 domain of NCK1 (Homo sapiens, UniProt P16333) (assay: Isothermal titration calorimetry (ITC) binding to NCK1 SH3-2 domain). Details: Alanine scanning of the MD17 15-mer peptide; ITC, 25 °C, pH 8.0.
T1 construct: To amplify the NCK1 SH3-2 domain, the primers; 10xHis tag with TEV site (vector pSF-OXB20-NH2-10HIS) (N, cleaved yes); made in house; host or cells: E. coli C43(DE3)
Text: Human PTP1B cDNA (NM_002827) and human NCK1 cDNA (NM 006153) were obtained (Origene, MD, USA). PTP1B Primers were designed to amplify the ORFs with added homology to the cut vector (EcoRI-digested pSF-OXB20-NH2-10HIS) in the forward primer sequence. To amplify full-length PTP1B, the primers ptp1b_FL_fwd ([…]) (SEQ ID NO: 159) and ptp1b_FL_rev ([…]) (SEQ ID NO: 160) were used. To amplify truncations of PTP1B, the following primer pairs were used: ptp1b_FL-Fwd and one of Ptplb_323stop_rev (gtgcaggaggagttcgaatt[…]) (SEQ ID NO: 161), ptp1b_344stop_rev ([…]) (SEQ ID NO: 162) or ptp1b_278stop_rev([…]) (SEQ ID NO: 163). To amplify the NCK1 SH3-2 domain, the primers ncklsh32_fwd ([…]) (SEQ ID NO: 164) and ncklsh32_rev ([…]) (SEQ ID NO: 165) were used. The amplified fragments were purified using a DNA clean-up kit according to manufacturer's instructions (QIAquick PCR purification kit, Qiagen).
To produce and purify fusion proteins, a culture was inoculated with 1% of overnight-cultured inoculum. Protein expression was carried out under the conditions described above, scaled up as necessary. Cells expressing the recombinant proteins were harvested in 50 mL tubes by centrifugation and stored at −80 °C. Cells containing the expressed gene product were thawed over ice and resuspended in Extraction buffer (10 mM Tris, pH 7.4 or 10 mM Sodium Phosphate, pH 8.0; 300 mM NaCl, 1 mM DTT or TCEP; 0-10% glycerol and 1 μg lysozyme) and sonicated over ice (4 °C) for 3 min total using pulses of 5 s with 15 s intervals, using a wide probe at 15 amplitude microns (Soniprep 150, MSE). Insoluble material was removed from the lysate by centrifugation at 20K rpm for 20-60 min at 4 °C. Supernatant was filtered through a 0.22 μm PVDF filter membrane and applied to 1-2 5 mL HisTrap FF Crude (Cytiva) prepacked Ni columns and connected to an AKTA explorer. After thorough washing with binding buffer (10 mM Tris, pH 7.4 or 10 mM Sodium Phosphate, pH 8.0; 300 mM NaCl; 1 mM DTT or TCEP and 25 mM Imidazole), protein was eluted using elution buffer (10 mM Tris, pH 7.4 or 10 mM Sodium Phosphate, pH 8.0; 150-300 mM NaCl; 1 mM DTT or TCEP and 250 mM Imidazole). Fractions containing protein of interest were confirmed by SDS PAGE. Protein was diluted with GF buffer (10 mM Tris, pH 7.4 or 10 mM Sodium Phosphate, pH 8.0; 150-300 mM NaCl) and subjected to TEV protease treatment overnight at 4-10 °C. Following proteolytic digestion, HIS-tag and TEV protease were removed by filtration through a clean 5 mL HisTrap FF Crude (Cytiva) prepacked Ni column. Protein was concentrated on a PES ultrafiltration device by centrifugation at 4000 rpm at 4 °C, and protein was polished via a HiPrep S-100 26/60 (Cytiva) using GF buffer (as described above). Purified proteins were concentrated using ultrafiltration, and protein concentration was determined using ultraviolet-visible spectroscopy. The integrity and identity of all proteins were verified by mass spectrographic analysis.
Isothermal titration calorimetry (ITC) was used to determine binding affinities for peptides against the SH3-2 domain of NCK1. Experiments were conducted at 25 °C using either a MicroCal iTC200 or MicroCal PEAQ-ITC calorimeter. The buffer used for all ITC experiments was 10 mM sodium [COMPOUND LEFT OUT] mM sodium chloride (pH=8.0). A series of peptides (concentration 3-7.5 mM) were titrated in to NCK1 SH3-2 domain (concentration 0.125-0.3 mM) using the following conditions: one injection of 0.2 μL followed by 19 injections of 2 μL, 120-150 seconds spacing between injections, at 25 °C. The data were fit using analysis software provided by the manufacturer and affinity values were calculated. The best fitting occurred when the number of sites was between 0.8 and 1.2. The experiments were repeated twice for a total of three times, and the average binding affinity for each peptide was generated. […]

Row | Molecule | Kd [µM]
1 | Ac-PPPEHIPPPARPPKR-NH2 [MH002] | > 1000
2 | Ac-PPPEHIPPPPRAPKR-NH2 [MH004] | ≤ 300
3 | Ac-PPPEHAPPPPRPPKR-NH2 [MSJ017] | ≤ 300
4 | Ac-PPPEHIPAPPRPPKR-NH2 [MSJ019] | ≤ 300
5 | Ac-PPPEAIPPPPRPPKR-NH2 [MSJ016] | ≤ 300
6 | Ac-PPPEHIPPAPRPPKR-NH2 [MH001] | ≤ 300

Same assay, conditions: Alanine scanning of the MD20 6-mer peptide; ITC, 25 °C, pH 8.0

Row | Molecule | Kd [µM]
7 | Ac-ARPPKR-NH2 [MH008, Ac-ARPPKR-NH2] | > 1000
8 | Ac-PRPPKA-NH2 [MH013, Ac-PRPPKA-NH2] | > 1000
9 | Ac-PAPPKR-NH2 [MH009, Ac-PAPPKR-NH2] | ≤ 300
10 | Ac-PRPAKR-NH2 [MH011, Ac-PRPAKR-NH2] | > 1000

Same assay, conditions: ITC

Row | Molecule | binding to NCK1 SH3-2 domain (in words)
11 | Ac-PRPPKA-NH2 [MH013, Ac-PRPPKA-NH2] | abolished binding

Same assay, conditions: Modified MD18/MD20 peptides; ITC, 25 °C, pH 8.0

Row | Molecule | Kd [µM]
12 | Ac-PPRPPKK-NH2 [MH076, Ac-PPRPPKK-NH2] | > 1000
13 | Ac-APRPPKR-NH2 [MH047, Ac-APRPPKR-NH2] | ≤ 300
14 | CCNC(=O)[C@H](CCCNC(=N)N)NC(=O)[C@H](CCCCN)NC(=O)[C@@H]1CCCN1C(=O)[C@@H]1CCCN1C(=O)[C@H](CCCNC(=N)N)NC(=O)[C@@H]1CCCN1C(=O)[C@@H]1CCCN1C(C)=O [MH046, Ac-PPRPPKR-NHEt] (Ac-PPRPPKR-NHEt) | ≤ 300
15 | CCNC(=O)[C@H](CCCNC(=N)N)NC(=O)[C@H](CCCCN)NC(=O)[C@@H]1CCCN1C(=O)[C@@H]1CCCN1C(=O)[C@H](CCCNC(=N)N)NC(=O)[C@@H]1CCCN1C(C)=O [MH045, Ac-PRPPKR-NHEt] (Ac-PRPPKR-NHEt) | ≤ 300
16 | H-PRPPKR-NH2 [MH080, H-PRPPKR-NH2] | > 1000

Same assay, conditions: N- or C-terminal extensions; ITC, 25 °C, pH 8.0; 30-mers tested one to three times

Row | Molecule | Kd [µM]
17 | Ac-PPRPPKRIL-NH2 [MH064] | ≤ 300
18 | Ac-PPPEHIPPPPRPPKRILEPHNGKCR-NH2 [MH134] | ≤ 300
19 | Ac-SVQDQWKELSHEDLEPPPEHIPPPPRPPKR-NH2 [MH136] | ≤ 300
20 | Ac-PPPEHIPPPPRPPKRILE-NH2 [MH077] | ≤ 300
21 | Ac-PPPEHIPPPPRPPKRILEPHNGKCREFFPN-NH2 [MH137] | ≤ 300

Same assay, conditions: Peptide truncation analysis; ITC, 25 °C, pH 8.0

Row | Molecule | Kd [µM]
22 | Ac-APRPPKR-NH2 [MH047, Ac-APRPPKR-NH2] | ≤ 300
23 | CC(=O)N[C@@H](CCCNC(=N)N)C(=O)N1CCC[C@H]1C(=O)N1CCC[C@H]1C(N)=O [MH020, Ac-RPP-NH2] (Ac-Arg-Pro-Pro-NH2) | > 1000
24 | Ac-PEHIPPPPRPPKR-NH2 [MH029] | ≤ 300
25 | CC(=O)N[C@@H](CCCNC(=N)N)C(=O)N1CCC[C@H]1C(=O)N1CCC[C@H]1C(=O)N[C@@H](CCCCN)C(N)=O [MH016, Ac-RPPK-NH2] (Ac-RPPK-NH2) | > 1000
26 | Ac-HIPPPPRPPKR-NH2 [MH027] | ≤ 300
27 | CC(=O)N1CCC[C@H]1C(=O)N1CCC[C@H]1C(=O)N[C@@H](CCCCN)C(=O)N[C@@H](CCCNC(=N)N)C(N)=O [MH017, Ac-PPKR-NH2] (Ac-PPKR-NH2) | > 1000
28 | Ac-EHIPPPPRPPKR-NH2 [MH028] | ≤ 300
29 | Ac-RPPKR-NH2 [MH018, Ac-RPPKR-NH2] | > 1000
30 | CC(=O)N1CCC[C@H]1C(=O)N[C@@H](CCCNC(=N)N)C(=O)N1CCC[C@H]1C(=O)N1CCC[C@H]1C(N)=O [MH021, Ac-PRPP-NH2] (Ac-PRPP-NH2) | > 1000

Same assay, conditions: Sliding window peptide analysis; ITC, 25 °C, pH 8.0

Row | Molecule | Kd [µM]
31 | Ac-PPPPRP-NH2 [MH037, Ac-PPPPRP-NH2] | > 1000
32 | Ac-PPPRPP-NH2 [MH036, Ac-PPPRPP-NH2] | > 1000
33 | Ac-IPPPPR-NH2 [MH038, Ac-IPPPPR-NH2] | > 1000

Same assay, conditions: exemplary control peptides; ITC, 25 °C, pH 8.0

Row | Molecule | Kd [µM]
34 | Ac-SPAKGEPSLPEK-NH2 [MH133, reference compound] | > 1000

Same assay, conditions: substitutions at position 1 of MD18; ITC, 25 °C, pH 8.0

Row | Molecule | Kd [µM]
35 | Ac-TPRPPKR-NH2 [MH113, Ac-TPRPPKR-NH2] | ≤ 300
36 | Ac-APRPPKR-NH2 [MH047, Ac-APRPPKR-NH2] | ≤ 300
37 | Ac-EPRPPKR-NH2 [MH071, Ac-EPRPPKR-NH2] | ≤ 300
38 | Ac-YPRPPKR-NH2 [MH119, Ac-YPRPPKR-NH2] | ≤ 300
39 | Ac-MPRPPKR-NH2 [MH109, Ac-MPRPPKR-NH2] | ≤ 300
40 | Ac-RPRPPKR-NH2 [MH068, Ac-RPRPPKR-NH2] | ≤ 300
41 | Ac-CPRPPKR-NH2 [MH070, Ac-CPRPPKR-NH2] | ≤ 300
42 | Ac-LPRPPKR-NH2 [MH099, Ac-LPRPPKR-NH2] | 300 to 600
43 | Ac-QPRPPKR-NH2 [MH086, Ac-QPRPPKR-NH2] | ≤ 300

Same assay, conditions: substitutions at position 3 of MD18; ITC, 25 °C, pH 8.0

Row | Molecule | Kd [µM]
44 | Ac-PPKPPKR-NH2 [MH055, Ac-PPKPPKR-NH2] | ≤ 300
45 | Ac-PPEPPKR-NH2 [MH058, Ac-PPEPPKR-NH2] | ≤ 300
46 | Ac-PPFPPKR-NH2 [MH066, Ac-PPFPPKR-NH2] | ≤ 300
47 | Ac-PPTPPKR-NH2 [MH114, Ac-PPTPPKR-NH2] | ≤ 300
48 | Ac-PPPPPKR-NH2 [MH106, Ac-PPPPPKR-NH2] | ≤ 300
49 | Ac-PPLPPKR-NH2 [MH100, Ac-PPLPPKR-NH2] | ≤ 300
50 | Ac-PPGPPKR-NH2 [MH092, Ac-PPGPPKR-NH2] | 600 to 1000
51 | Ac-PPCPPKR-NH2 [MH061, Ac-PPCPPKR-NH2] | ≤ 300
52 | Ac-PPMPPKR-NH2 [MH110, Ac-PPMPPKR-NH2] | ≤ 300
53 | Ac-PPNPPKR-NH2 [MH060, Ac-PPNPPKR-NH2] | ≤ 300
54 | Ac-PPHPPKR-NH2 [MH057, Ac-PPHPPKR-NH2] | ≤ 300
55 | Ac-PPWPPKR-NH2 [MH056, Ac-PPWPPKR-NH2] | 300 to 600

Same assay, conditions: substitutions at position 4 of MD18 in a 7-mer; ITC, 25 °C, pH 8.0

Row | Molecule | Kd [µM]
56 | Ac-PPRQPKR-NH2 [MH131, Ac-PPRQPKR-NH2] | > 1000
57 | Ac-PPRGPKR-NH2 [MH093, Ac-PPRGPKR-NH2] | > 1000
58 | Ac-PPRVPKR-NH2 [MH125, Ac-PPRVPKR-NH2] | ≤ 300
59 | Ac-PPRDPKR-NH2 [MH128, Ac-PPRDPKR-NH2] | > 1000
60 | Ac-PPRIPKR-NH2 [MH097, Ac-PPRIPKR-NH2] | ≤ 300
61 | Ac-PPRHPKR-NH2 [MH132, Ac-PPRHPKR-NH2] | > 1000

Same assay, conditions: substitutions at position 6 of MD18; ITC, 25 °C, pH 8.0

Row | Molecule | Kd [µM]
62 | Ac-PPRPPWR-NH2 [MH050, Ac-PPRPPWR-NH2] | ≤ 300
63 | Ac-PPRPPCR-NH2 [MH054, Ac-PPRPPCR-NH2] | ≤ 300
64 | Ac-PPRPPRR-NH2 [MH048, Ac-PPRPPRR-NH2] | ≤ 300
65 | Ac-PPRPPMR-NH2 [MH112, Ac-PPRPPMR-NH2] | ≤ 300
66 | Ac-PPRPPVR-NH2 [MH126, Ac-PPRPPVR-NH2] | ≤ 300
67 | Ac-PPRPPER-NH2 [MH051, Ac-PPRPPER-NH2] | ≤ 300
68 | Ac-PPRPPSR-NH2 [MH052, Ac-PPRPPSR-NH2] | ≤ 300
69 | Ac-PPRPPGR-NH2 [MH094, Ac-PPRPPGR-NH2] | 600 to 1000
70 | Ac-PPRPPFR-NH2 [MH105, Ac-PPRPPFR-NH2] | 300 to 600

Same assay, conditions: substitutions at position 8 of the 8-mer MH063; ITC, 25 °C, pH 8.0; certain peptides tested one to three times

Row | Molecule | Kd [µM]
71 | Ac-PPRPPKRP-NH2 [MH151] | 300 to 600
72 | Ac-PPRPPKRA-NH2 [MH138] | ≤ 300
73 | Ac-PPRPPKRM-NH2 [MH149] | ≤ 300
74 | Ac-PPRPPKRW-NH2 [MH154] | ≤ 300
75 | Ac-PPRPPKRR-NH2 [MH139] | ≤ 300
